Four molecules from ChEMBL document CHEMBL2074065, “Pravastatin, an HMG-CoA reductase inhibitor, is transported by rat organic anion transporting polypeptide, oatp2” (Pharm Res, 1999) can be followed below.

Series [1] addresses T1, Solute carrier organic anion transporter family member 1A4 (Rattus norvegicus, UniProt O35913).
T1 sequence (O35913 whole entry): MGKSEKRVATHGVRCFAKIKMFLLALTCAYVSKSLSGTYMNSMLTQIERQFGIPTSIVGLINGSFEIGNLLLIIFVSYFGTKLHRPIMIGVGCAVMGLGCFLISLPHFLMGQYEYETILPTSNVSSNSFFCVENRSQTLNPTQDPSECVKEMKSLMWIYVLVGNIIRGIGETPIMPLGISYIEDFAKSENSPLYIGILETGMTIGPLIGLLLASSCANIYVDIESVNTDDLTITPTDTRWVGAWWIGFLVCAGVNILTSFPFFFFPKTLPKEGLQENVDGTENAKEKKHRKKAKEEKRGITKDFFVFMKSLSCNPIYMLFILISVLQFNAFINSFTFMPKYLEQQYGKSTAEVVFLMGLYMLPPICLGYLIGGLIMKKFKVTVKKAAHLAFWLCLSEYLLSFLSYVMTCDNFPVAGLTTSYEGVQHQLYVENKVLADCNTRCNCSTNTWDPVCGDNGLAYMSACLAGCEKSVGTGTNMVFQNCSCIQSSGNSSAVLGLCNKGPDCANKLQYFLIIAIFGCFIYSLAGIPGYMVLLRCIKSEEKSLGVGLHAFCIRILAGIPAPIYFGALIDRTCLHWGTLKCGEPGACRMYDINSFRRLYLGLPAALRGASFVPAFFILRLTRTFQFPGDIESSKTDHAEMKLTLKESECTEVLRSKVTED
Put plainly: TP_TRANSPORTER: inhibition of Pravastatin uptake (Pravastatin: 30 uM, E217betaG: 300 uM) in Xenopus laevis oocytes. Type of series: functional, cell-based. As to conditions: oocyte.

Series [2] deals with T1, Solute carrier organic anion transporter family member 1A4. As to the kind of experiment: TP_TRANSPORTER: inhibition of Pravastatin uptake (Pravastatin: 30 uM, Simvastatin: 300 uM) in Xenopus laevis oocytes. The format is functional, cell-based. As to conditions: oocyte.
For series [3] the target is unchanged. As to the kind of experiment: TP_TRANSPORTER: inhibition of Pravastatin uptake (Pravastatin: 30 uM, BSP: 300 uM) in Xenopus laevis oocytes. The format is functional, cell-based. As to conditions: oocyte.
Substrate in series [4]: CC[C@H](C)C(=O)O[C@H]1C[C@H](O)C=C2C=C[C@H](C)[C@H](CC[C@@H](O)C[C@@H](O)CC(=O)O)[C@H]21
Put plainly: TP_TRANSPORTER: uptake in Xenopus laevis oocytes. The format is functional, cell-based, Oocyte.

In the case of `C[C@]12CC[C@@H]3c4ccc(O)cc4CC[C@H]3[C@@H]1CC[C@@H]2O[C@@H]1O[C@H](C(=O)O)[C@@H](O)[C@H](O)[C@H]1O` [ESTRADIOL 17B GLUCURONIDE], the Activity entry in series [1] is “inhibitor [+]”.
Take `CCC(C)(C)C(=O)O[C@H]1C[C@@H](C)C=C2C=C[C@H](C)[C@H](CC[C@@H]3C[C@@H](O)CC(=O)O3)[C@H]21` [SIMVASTATIN]: in series [2], the Activity result was “inhibitor [+]”.
`O=C1OC(c2ccc(O)c(S(=O)(=O)[O-])c2)(c2ccc(O)c(S(=O)(=O)[O-])c2)c2c(Br)c(Br)c(Br)c(Br)c21.[Na+].[Na+]` [SULFOBROMOPHTHALEIN SODIUM]: the Activity result in series [3] was “inhibitor [+]”.

B1: Solute carrier organic anion transporter family member 1A4 (Rattus norvegicus) (protein)
chain: MGKSEKRVATHGVRCFAKIKMFLLALTCAYVSKSLSGTYMNSMLTQIERQFGIPTSIVGLINGSFEIGNLLLIIFVSYFGTKLHRPIMIGVGCAVMGLGCFLISLPHFLMGQYEYETILPTSNVSSNSFFCVENRSQTLNPTQDPSECVKEMKSLMWIYVLVGNIIRGIGETPIMPLGISYIEDFAKSENSPLYIGILETGMTIGPLIGLLLASSCANIYVDIESVNTDDLTITPTDTRWVGAWWIGFLVCAGVNILTSFPFFFFPKTLPKEGLQENVDGTENAKEKKHRKKAKEEKRGITKDFFVFMKSLSCNPIYMLFILISVLQFNAFINSFTFMPKYLEQQYGKSTAEVVFLMGLYMLPPICLGYLIGGLIMKKFKVTVKKAAHLAFWLCLSEYLLSFLSYVMTCDNFPVAGLTTSYEGVQHQLYVENKVLADCNTRCNCSTNTWDPVCGDNGLAYMSACLAGCEKSVGTGTNMVFQNCSCIQSSGNSSAVLGLCNKGPDCANKLQYFLIIAIFGCFIYSLAGIPGYMVLLRCIKSEEKSLGVGLHAFCIRILAGIPAPIYFGALIDRTCLHWGTLKCGEPGACRMYDINSFRRLYLGLPAALRGASFVPAFFILRLTRTFQFPGDIESSKTDHAEMKLTLKESECTEVLRSKVTED
The Km is the substrate concentration at which the rate is half of its maximum. For the molecule B1, the Km in series [4] came to 37.5 µM.
